pKi: −log10 of the molar value. “Also recorded” adds a separate entry of the source. Where two headings read alike, the source gives them in different places.

Data on one compound can be found in paper PMC6269737, “Effect of Honokiol on Cytochrome P450 and UDP-Glucuronosyltransferase Enzyme Activities in Human Liver Microsomes” (Molecules, 2013).

The target of one data set is T1, CYP2A6 (Homo sapiens, UniProt P11509).
T1 sequence (P11509 1-494): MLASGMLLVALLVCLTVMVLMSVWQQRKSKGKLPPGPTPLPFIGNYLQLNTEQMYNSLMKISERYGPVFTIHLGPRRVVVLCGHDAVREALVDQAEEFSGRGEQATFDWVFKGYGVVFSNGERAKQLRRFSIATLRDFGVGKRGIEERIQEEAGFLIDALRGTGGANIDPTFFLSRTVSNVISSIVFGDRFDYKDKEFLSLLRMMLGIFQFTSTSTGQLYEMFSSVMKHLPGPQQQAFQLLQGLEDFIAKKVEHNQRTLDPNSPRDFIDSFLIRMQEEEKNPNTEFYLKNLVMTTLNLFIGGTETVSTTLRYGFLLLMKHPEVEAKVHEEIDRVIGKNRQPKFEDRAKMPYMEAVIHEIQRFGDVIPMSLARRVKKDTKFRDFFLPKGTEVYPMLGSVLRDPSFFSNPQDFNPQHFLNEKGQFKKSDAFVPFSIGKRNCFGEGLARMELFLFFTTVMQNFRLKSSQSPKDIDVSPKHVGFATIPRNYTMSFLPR
The following applies: microsomes. Here is the method: The inhibitory potential (IC50 values) of honokiol on CYP activities was evaluated in pooled human liver microsomes using liquid chromatography-tandem mass spectrometry (LC-MS/MS). […] Honokiol was dissolved in acetonitrile. […] After a 3 min preincubation at 37 °C, the reactions were initiated by addition of an NADP generating system and incubated for 15 min at 37 °C in a shaking water bath. The reaction was then stopped by placement of the tubes on ice and adding 100 μL of ice-cold methanol containing internal standards (^13C2, ^15N-acetaminophen for acetaminophen and N-deethylamodiaquine, and d9-1-hydroxybufuralol for 4-hydroxydiclofenac, 4-hydroxybupropion, 7-hydroxycoumarin, 4-hydroxymephenytoin, 1'-hydroxybufuralol, and 1'-hydroxymidazolam). The incubation mixtures were then centrifuged at 13,000 × g for 4 min. All incubations were performed in triplicate, and average values were used. […]
The metabolites formed from the seven CYP cocktail substrates were simultaneously determined according to our previously described LC-MS/MS method with minor modification; the concentration of 4-hydroxybupropion for CYP2B6 activity was quantified separately by LC-MS/MS. […] Quantification was performed by selected reaction monitoring (SRM) of [M+H]^+ ions and the related product ions for each metabolite. […]

The next data set deals with CYP3A4 (Homo sapiens, UniProt P08684). The data set is described as follows: biochemical. The following applies: IC50 (μM) of honokiol, Midazolam 1'-hydroxylation. Here is the method:
The inhibitory potential (IC50 values) of honokiol on CYP activities was evaluated in pooled human liver microsomes using liquid chromatography-tandem mass spectrometry (LC-MS/MS). […] Honokiol was dissolved in acetonitrile. […] […] The reaction was then stopped by placement of the tubes on ice and adding 100 μL of ice-cold methanol containing internal standards (^13C2, ^15N-acetaminophen for acetaminophen and N-deethylamodiaquine, and d9-1-hydroxybufuralol for 4-hydroxydiclofenac, 4-hydroxybupropion, 7-hydroxycoumarin, 4-hydroxymephenytoin, 1'-hydroxybufuralol, and 1'-hydroxymidazolam). The incubation mixtures were then centrifuged at 13,000 × g for 4 min. All incubations were performed in triplicate, and average values were used.
(§1) The reaction was initiated by the addition of the cocktail containing seven CYP probe substrates and bupropion.
The metabolites formed from the seven CYP cocktail substrates were simultaneously determined according to our previously described LC-MS/MS method with minor modification; the concentration of 4-hydroxybupropion for CYP2B6 activity was quantified separately by LC-MS/MS. A tandem mass spectrometer (TSQ Quantum Access, Thermo Scientific, San Jose, CA, USA) coupled with a Nanospace SI-2 LC system (Tokyo, Japan) was used. […] Quantification was performed by selected reaction monitoring (SRM) of [M+H]^+ ions and the related product ions for each metabolite. […]

The next data set addresses T2, CYP1A2 (Homo sapiens, UniProt P05177).
T2 sequence (P05177 1-516): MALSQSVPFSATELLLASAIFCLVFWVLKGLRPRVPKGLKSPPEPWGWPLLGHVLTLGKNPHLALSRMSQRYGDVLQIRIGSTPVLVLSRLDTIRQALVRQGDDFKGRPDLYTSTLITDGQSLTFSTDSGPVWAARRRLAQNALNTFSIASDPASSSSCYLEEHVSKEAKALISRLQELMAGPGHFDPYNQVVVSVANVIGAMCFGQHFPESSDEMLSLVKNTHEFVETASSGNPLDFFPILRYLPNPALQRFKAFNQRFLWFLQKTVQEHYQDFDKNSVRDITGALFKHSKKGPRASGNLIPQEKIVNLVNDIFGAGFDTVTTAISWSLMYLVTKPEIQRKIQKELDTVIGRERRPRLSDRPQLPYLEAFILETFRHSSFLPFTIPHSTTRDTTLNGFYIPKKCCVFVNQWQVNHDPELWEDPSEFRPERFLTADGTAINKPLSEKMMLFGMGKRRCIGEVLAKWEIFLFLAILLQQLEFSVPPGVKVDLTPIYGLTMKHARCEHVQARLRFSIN
The data set can be described thus: CYP1A2-catalyzed phenacetin O-deethylation inhibition in pooled human liver microsomes (LC-MS/MS). Format: in vitro ADME. How it is done: The inhibitory potential (IC50 values) of honokiol on CYP activities was evaluated in pooled human liver microsomes using liquid chromatography-tandem mass spectrometry (LC-MS/MS). […] Honokiol was dissolved in acetonitrile. […] After a 3 min preincubation at 37 °C, the reactions were initiated by addition of an NADP generating system and incubated for 15 min at 37 °C in a shaking water bath. The reaction was then stopped by placement of the tubes on ice and adding 100 μL of ice-cold methanol containing internal standards (^13C2, ^15N-acetaminophen for acetaminophen and N-deethylamodiaquine, and d9-1-hydroxybufuralol for 4-hydroxydiclofenac, 4-hydroxybupropion, 7-hydroxycoumarin, 4-hydroxymephenytoin, 1'-hydroxybufuralol, and 1'-hydroxymidazolam). The incubation mixtures were then centrifuged at 13,000 × g for 4 min. All incubations were performed in triplicate, and average values were used.
as §1
The metabolites formed from the seven CYP cocktail substrates were simultaneously determined according to our previously described LC-MS/MS method with minor modification; the concentration of 4-hydroxybupropion for CYP2B6 activity was quantified separately by LC-MS/MS. A tandem mass spectrometer (TSQ Quantum Access, Thermo Scientific, San Jose, CA, USA) coupled with a Nanospace SI-2 LC system (Tokyo, Japan) was used. The column and autosampler temperatures were 50 °C and 6 °C, respectively. The mass spectrometer was equipped with an electrospray ionization (ESI) source and operated in positive ion mode. The ESI source settings for ionization of the metabolites were as follows: capillary voltage, 4200 V; vaporizer temperature, 350 °C; capillary temperature 330 °C; sheath gas pressure, 35 psi; auxiliary gas pressure, 15 psi. Quantification was performed by selected reaction monitoring (SRM) of [M+H]^+ ions and the related product ions for each metabolite. […] Analytical data were processed using Xcalibur® software (Thermo Scientific).
The incubation mixtures were centrifuged at 13,000 × g for 4 min, and the supernatants were diluted as follows: dilution of 20 μL supernatant with 180 μL of 25% methanol for CYP2C8; dilution of 50 μL supernatant with 50 μL of water for CYP2C9, CYP2C19, CYP2D6, and CYP1A2; and dilution of 20 μL supernatant with 80 μL of water for CYP2B6. Aliquots (5 μL) of the diluted supernatants were then analyzed by LC-MS/MS.
The apparent kinetic parameters for inhibitory potential (Ki values) were estimated from the fitted curves using Enzyme Kinetics Ver. 1.1 software (Systat Software Inc.).
On the technique in general: Liver microsomes are a subcellular fraction often used to study metabolism.

CYP3A4, sequence (P08684 2-503): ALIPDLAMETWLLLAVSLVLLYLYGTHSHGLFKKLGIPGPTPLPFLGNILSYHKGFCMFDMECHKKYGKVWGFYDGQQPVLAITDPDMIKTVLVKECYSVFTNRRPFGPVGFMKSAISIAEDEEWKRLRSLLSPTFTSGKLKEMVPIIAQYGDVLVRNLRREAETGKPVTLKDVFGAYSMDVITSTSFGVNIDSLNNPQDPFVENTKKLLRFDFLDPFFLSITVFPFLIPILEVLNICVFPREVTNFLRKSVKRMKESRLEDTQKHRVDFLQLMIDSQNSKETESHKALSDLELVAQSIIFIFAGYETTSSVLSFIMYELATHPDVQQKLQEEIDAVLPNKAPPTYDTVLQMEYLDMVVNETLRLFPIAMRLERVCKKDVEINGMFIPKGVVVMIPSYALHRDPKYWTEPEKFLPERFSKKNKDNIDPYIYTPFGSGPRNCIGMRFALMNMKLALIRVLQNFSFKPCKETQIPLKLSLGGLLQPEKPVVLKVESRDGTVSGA

Turning to `C=CCc1ccc(O)c(-c2ccc(O)c(CC=C)c2)c1` [honokiol, 2-(4-hydroxy-3-prop-2-enyl-phenyl)-4-prop-2-enyl-phenol], the “IC50 (μM) of honokiol, no preincubation” value against CYP2A6 was “No inhibition”. The “IC50 (μM) of honokiol, with preincubation” value against CYP2A6 was “No inhibition”. Further, the half-maximal inhibitory concentration (IC50) (in general, the point on the concentration scale where inhibition reaches its midpoint) was found to be 97.3 µM at CYP3A4 (no preincubation, 2.5 μM midazolam, pooled HLM (H161)); 45.8 µM against CYP3A4 (with preincubation, 30 min preincubation with NADPH); 2.1 µM on CYP1A2 (50 μM phenacetin (cocktail), pooled human liver microsomes (H161), read-out: IC50 (μM) of honokiol, no preincubation); 4.7 µM at CYP1A2 (30 min preincubation in the presence of NADPH, pooled HLM (H161), read-out: IC50 (μM) of honokiol, with preincubation). At CYP1A2 (10–80 μM phenacetin, pooled HLM (H161)), the pKi – broadly, the Ki on a negative log10 scale, so that one unit is a factor of ten – is 5.92. Also, the Inhibition mode result on CYP1A2 (pooled HLM (H161)) is listed as “noncompetitively; also recorded: noncompetitive”.
